Assay results from PMC11182288, “Effects of Netarsudil-Family Rho Kinase Inhibitors on Human Trabecular Meshwork Cell Contractility and Actin Remodeling Using a Bioengineered ECM Hydrogel” (Frontiers in Ophthalmology, 2022).
“Also recorded” adds a separate entry of the source. Where two headings read alike, the source gives them in different places. Each block holds one molecule with its values, some of them ahead of it.

Tests used:
[1] = target: T1, ROCK1 (Homo sapiens, UniProt Q13464); test: ROCK1 protein kinase assay (Kinase-Glo Luminescent Kinase Assay); assay type: biochemical
T1 construct: purchased Invitrogen; Thermo Fisher Scientific
Experimental: (§1) Dose response analyses were conducted to establish IC50 values, which were converted to Ki values using the Cheng-Prusoff Equation Ki = IC50/(1 + ([ATP]/Km ATP).

[2] = test system: cellular esterases; conditions: stated in discussion, no reference given; cited from earlier work
[3] = test system: HTM cell-encapsulated ECM hydrogels; test: HTM hydrogel contraction analysis after TGFβ2 induction and ROCKi rescue; assay type: cell-based, human; conditions: for HTM hydrogel contraction reversal compared with 10 µM Y27632 / Concentrations giving significantly decreased HTM hydrogel contraction compared to the TGFβ2 group / EC50: HTM07; for Concentrations giving significantly decreased HTM hydrogel contraction compared to the TGFβ2 group: dose range 0.0001-1.0 µM, 5-10 d; for EC50 / Increase of HTM hydrogel contraction over controls: TGFβ2 2.5 ng/ml 0-5 d; for EC50: then ROCKi 0.0001-1.0 µM 5-10 d, read-out: EC50, reduction of TGFβ2-induced HTM hydrogel contraction
Experimental: HTM cells (1.0 × 10^6 cells/ml) were thoroughly mixed with MA-COL (3.6 mg/ml), SH-HA (0.5 mg/ml, 0.025% (w/v) photoinitiator) and SH-ELP (2.5 mg/ml) on ice ( Supplementary Figure 2A ), followed by pipetting 10 μl droplets of the HTM cell-laden hydrogel precursor solution onto polydimethylsiloxane-coated (PDMS; Sylgard 184; Dow Corning) 24-well culture plates ( Supplementary Figure 2B ), according to our established protocols ([32]–[34]). Alternatively, 30 µl droplets of the HTM cell-laden hydrogel precursor solution were pipetted onto Surfasil-coated (Fisher Scientific) 18 × 18-mm square glass coverslips followed by placing a regular 12-mm round glass coverslip onto the hydrogels to facilitate even spreading of the polymer solution. HTM hydrogels were crosslinked by exposure to UV light (OmniCure S1500 UV Spot Curing System; Excelitas Technologies, Mississauga, Ontario, Canada) at 320-500 nm, 2.2 W/cm^2 for 5 s. The HTM hydrogel-adhered coverslips were removed with fine-tipped tweezers and placed hydrogel-side facing up in PDMS-coated 24-well culture plates ( Supplementary Figure 2C ).
Longitudinal brightfield images of HTM hydrogels subjected to the different treatments were acquired at 0 d and 10 d with an Eclipse Ti microscope (Nikon Instruments, Melville, NY, USA). Construct area was measured using Fiji software (National Institutes of Health (NIH), Bethesda, MD, USA) and normalized to 0 d followed by normalization to controls.

[4] = target: ROCK1/2; test: ROCK1/2 kinase assays, average of both isoforms; assay type: biochemical, human; conditions: average of ROCK1 and ROCK2 Ki
Experimental: as §1

[5] = test system: normotensive Dutch Belted rabbits; design: method as in unpublished data; conditions: ref unpublished data; cited from earlier work
[6] = test system: F-actin stress fibers in hydrogel-encapsulated HTM cells; test: HTM hydrogel immunocytochemistry, F-actin stress fibers; assay type: cell-based, human; conditions: for Effect on TGFβ2-induced F-actin stress fibers vs. TGFβ2 group: HTM05, HTM07, HTM36
Experimental: Alternatively, 30 µl droplets of the HTM cell-laden hydrogel precursor solution were pipetted onto Surfasil-coated (Fisher Scientific) 18 × 18-mm square glass coverslips followed by placing a regular 12-mm round glass coverslip onto the hydrogels to facilitate even spreading of the polymer solution. HTM hydrogels were crosslinked by exposure to UV light (OmniCure S1500 UV Spot Curing System; Excelitas Technologies, Mississauga, Ontario, Canada) at 320-500 nm, 2.2 W/cm^2 for 5 s. The HTM hydrogel-adhered coverslips were removed with fine-tipped tweezers and placed hydrogel-side facing up in PDMS-coated 24-well culture plates ( Supplementary Figure 2C ).
Nuclei were counterstained with 4′,6′-diamidino-2-phenylindole (DAPI; Abcam). Coverslips were mounted with ProLong™ Gold Antifade (Invitrogen) on Superfrost™ microscope slides (Fisher Scientific), and fluorescent images were acquired with a Zeiss LSM 780 confocal microscope (Zeiss, Germany). […] Individual z-stacks consisted of 7 slices with the z-step interval set to […]. Fluorescence signal intensity of F-actin and αSMA were determined using Z-project maximum intensity projections in Fiji (NIH) with image background subtraction.

[7] = test system: transformed HTM cells (TM-1); test: Cell-based assay measuring disruption of focal adhesions (paxillin staining); design: species or system human; conditions: 6 h, TM-1 cells on fibronectin-coated glass, Mean ± SEM, N ≥ 3
Experimental: Cell-based assays measuring disruption of focal adhesions were conducted using transformed HTM cells (TM-1; kind gift from Donna Peters; Department of Ophthalmology and Visual Sciences, University of Wisconsin), as previously described ([39]). […] TM-1 cells were stained with an anti-paxillin primary antibody followed by incubation with an Alexa Fluor-488 fluorescent secondary antibody and Hoechst 33342 counterstain (all from Invitrogen) to reveal focal adhesions and nuclei, respectively. Images were collected on an INCell 1000 imager (GE Healthcare, Marlborough, MA, USA), and total area of focal adhesions was measured using a custom algorithm developed using the INCell Developer Toolbox, v1.6. Dose response analyses were conducted to establish IC50 values.

[8] = target: T2, ROCK2 (Homo sapiens, UniProt O75116); test: ROCK2 protein kinase assay (Kinase-Glo Luminescent Kinase Assay); assay type: biochemical
T2 construct: purchased Invitrogen; Thermo Fisher Scientific
Experimental: as §1

[9] = stated in discussion, no reference given; cited from earlier work
[10] = target: ROCK1/2; conditions: same biochemical assay; ref [13]; read-out: Ki of Y27632; cited from earlier work
[11] = test system: transformed HTM cells (TM-1); conditions: same cell-based assay; ref [13]; read-out: IC50 of Y27632, HTM cell focal adhesion disruption; cited from earlier work
[12] = each compound at its respective EC50, HTM05, HTM07, HTM36
[13] = each compound at its respective EC50
[14] = each compound at its respective EC50, across HTM05, HTM07, HTM36, 10 d
[15] = each compound at its respective EC50, pooled HTM05, HTM07, HTM36, 10 d
[16] = TGFβ2 induction group, across three cell strains

T1 sequence (Q13464 whole entry): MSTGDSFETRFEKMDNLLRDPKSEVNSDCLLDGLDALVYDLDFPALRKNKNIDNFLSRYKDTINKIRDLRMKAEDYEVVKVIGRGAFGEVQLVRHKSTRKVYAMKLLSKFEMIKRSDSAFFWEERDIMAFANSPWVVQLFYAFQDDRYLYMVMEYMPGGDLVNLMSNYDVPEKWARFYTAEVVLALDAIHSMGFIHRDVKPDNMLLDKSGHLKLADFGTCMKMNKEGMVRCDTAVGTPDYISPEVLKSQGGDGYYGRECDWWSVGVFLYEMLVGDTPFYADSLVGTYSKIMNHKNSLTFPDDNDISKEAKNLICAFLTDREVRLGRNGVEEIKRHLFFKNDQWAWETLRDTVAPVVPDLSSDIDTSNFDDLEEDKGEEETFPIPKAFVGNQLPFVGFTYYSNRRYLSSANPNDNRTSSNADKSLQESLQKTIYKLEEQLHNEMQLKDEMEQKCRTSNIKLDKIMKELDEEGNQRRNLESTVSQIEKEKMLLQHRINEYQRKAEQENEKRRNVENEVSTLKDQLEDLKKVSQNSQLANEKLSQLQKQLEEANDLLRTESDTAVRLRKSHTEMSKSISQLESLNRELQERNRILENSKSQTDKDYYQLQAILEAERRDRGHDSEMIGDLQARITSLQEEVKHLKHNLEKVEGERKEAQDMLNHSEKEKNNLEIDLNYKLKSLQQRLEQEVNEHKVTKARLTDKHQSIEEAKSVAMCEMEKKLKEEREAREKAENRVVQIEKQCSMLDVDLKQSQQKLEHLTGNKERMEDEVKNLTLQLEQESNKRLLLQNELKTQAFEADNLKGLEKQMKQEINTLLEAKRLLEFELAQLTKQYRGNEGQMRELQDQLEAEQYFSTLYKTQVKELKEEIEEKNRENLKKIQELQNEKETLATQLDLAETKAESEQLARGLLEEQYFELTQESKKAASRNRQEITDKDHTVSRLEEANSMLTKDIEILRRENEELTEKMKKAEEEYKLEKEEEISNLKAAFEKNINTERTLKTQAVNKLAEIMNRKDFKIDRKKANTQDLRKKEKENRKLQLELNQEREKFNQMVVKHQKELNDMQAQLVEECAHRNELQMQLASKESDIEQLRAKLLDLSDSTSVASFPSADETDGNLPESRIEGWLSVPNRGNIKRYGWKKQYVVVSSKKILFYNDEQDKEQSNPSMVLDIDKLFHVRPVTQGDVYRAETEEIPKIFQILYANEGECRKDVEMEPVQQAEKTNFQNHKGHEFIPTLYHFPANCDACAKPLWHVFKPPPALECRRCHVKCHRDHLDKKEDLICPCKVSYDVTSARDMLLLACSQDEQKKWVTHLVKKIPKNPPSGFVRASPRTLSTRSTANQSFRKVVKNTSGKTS
T2 sequence (O75116 whole entry): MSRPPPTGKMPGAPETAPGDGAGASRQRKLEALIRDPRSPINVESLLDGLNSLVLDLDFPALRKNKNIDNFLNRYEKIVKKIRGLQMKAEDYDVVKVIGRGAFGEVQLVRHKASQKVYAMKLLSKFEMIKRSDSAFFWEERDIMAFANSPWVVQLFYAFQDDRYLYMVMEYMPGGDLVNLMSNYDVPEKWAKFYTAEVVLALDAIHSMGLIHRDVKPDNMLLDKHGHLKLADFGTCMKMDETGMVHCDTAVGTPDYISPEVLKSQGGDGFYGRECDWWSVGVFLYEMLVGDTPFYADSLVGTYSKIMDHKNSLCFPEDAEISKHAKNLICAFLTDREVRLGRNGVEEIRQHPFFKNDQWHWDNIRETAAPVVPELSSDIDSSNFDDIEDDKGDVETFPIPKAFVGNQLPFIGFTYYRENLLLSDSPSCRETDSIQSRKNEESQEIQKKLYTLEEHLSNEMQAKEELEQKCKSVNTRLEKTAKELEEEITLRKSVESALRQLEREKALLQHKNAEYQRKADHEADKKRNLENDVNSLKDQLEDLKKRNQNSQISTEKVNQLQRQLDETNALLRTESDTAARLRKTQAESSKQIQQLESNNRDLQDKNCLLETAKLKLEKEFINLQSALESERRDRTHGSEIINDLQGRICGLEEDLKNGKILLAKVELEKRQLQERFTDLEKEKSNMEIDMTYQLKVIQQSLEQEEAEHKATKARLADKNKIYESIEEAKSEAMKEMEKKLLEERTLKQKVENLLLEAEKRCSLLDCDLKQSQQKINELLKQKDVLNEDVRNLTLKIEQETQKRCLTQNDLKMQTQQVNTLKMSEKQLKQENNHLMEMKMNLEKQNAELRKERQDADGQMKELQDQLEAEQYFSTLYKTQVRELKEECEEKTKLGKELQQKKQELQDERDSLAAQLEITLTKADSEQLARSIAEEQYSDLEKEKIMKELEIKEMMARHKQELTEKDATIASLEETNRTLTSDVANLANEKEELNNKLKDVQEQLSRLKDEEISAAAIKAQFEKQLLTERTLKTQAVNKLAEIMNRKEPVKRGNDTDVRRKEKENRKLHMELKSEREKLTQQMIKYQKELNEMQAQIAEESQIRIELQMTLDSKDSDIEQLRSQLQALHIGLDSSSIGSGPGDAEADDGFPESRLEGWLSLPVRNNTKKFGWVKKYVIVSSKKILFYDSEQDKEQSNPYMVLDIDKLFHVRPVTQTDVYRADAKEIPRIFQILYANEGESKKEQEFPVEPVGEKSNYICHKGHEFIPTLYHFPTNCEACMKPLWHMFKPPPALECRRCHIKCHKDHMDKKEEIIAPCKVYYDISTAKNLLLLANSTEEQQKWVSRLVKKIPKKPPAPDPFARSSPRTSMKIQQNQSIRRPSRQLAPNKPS

Ki [1]: 1.5 ± 0.7 nM | EC50 ([3]; Homo sapiens, HTM): 3.7 nM | Ki [4]: ~1.4 nM | IC50 ([7]; Homo sapiens): ~15 nM
Molecule: NC[C@@H](C(=O)Nc1ccc2cnccc2c1)c1ccc(COC(=O)c2ccccc2)cc1 [Compound A]
Metabolism by cellular esterases (ester hydrolysis) [2]: more quickly metabolized than netarsudil | HTM hydrogel contraction reversal compared with 10 µM Y27632 ([3]; compound at 1.0 µM): not different | Concentrations giving significantly decreased HTM hydrogel contraction compared to the TGFβ2 group [3]: ≥ 0.01 µM | Effect on TGFβ2-induced HTM hydrogel contraction vs. TGFβ2 group [3, 12]: failed to reverse | Effect on TGFβ2-induced HTM hydrogel contraction, HTM36 ([3]; uniform ROCKi concentration of 35.9 nM, HTM36): significantly decreased | Intraocular pressure lowering [5]: did not perform as well; also recorded: unable to significantly lower intraocular pressure | Effect on TGFβ2-induced F-actin stress fibers vs. TGFβ2 group [6, 13]: not different from TGFβ2

Ki [8]: 2 nM | Ki [1]: 1.7 nM | EC50 ([3]; Homo sapiens, HTM): 22.2 nM | Ki [4]: ~1.9 nM
Molecule: NC[C@@H](C(=O)Nc1ccc2cnccc2c1Cl)c1ccccc1 [Compound B]
Metabolism by cellular esterases (ester hydrolysis) [2]: cannot be metabolized by cellular esterases at all | Concentrations giving significantly decreased HTM hydrogel contraction compared to the TGFβ2 group [3]: ≥ 0.1 µM | Effect on TGFβ2-induced HTM hydrogel contraction vs. TGFβ2 group [3, 12]: significantly decreased TGFβ2-induced HTM hydrogel contraction using HTM05 and HTM36 cells | Relative hydrogel size vs. controls [3, 14]: ~ 105% | Intraocular pressure lowering [5]: did not perform as well as netarsudil | Effect on TGFβ2-induced F-actin stress fibers vs. TGFβ2 group [6, 13]: significantly decreased | Relative F-actin signal fold-change vs. controls [6, 15]: ~ 1.1 fold-change

Ki [8]: 1.2 ± 0.4 nM | Ki [1]: 1.8 ± 0.3 nM | EC50 ([3]; Homo sapiens, HTM): 6.7 nM | Ki [4]: ~1.5 nM | IC50 ([7]; Homo sapiens): ~5.6 nM
Molecule: NC[C@@H](C(=O)Nc1ccc2cnccc2c1)c1ccc(Cl)cc1 [Compound C]
Metabolism by cellular esterases (ester hydrolysis) [2]: cannot be metabolized by cellular esterases at all | HTM hydrogel contraction reversal compared with 10 µM Y27632 ([3]; compound at 1.0 µM): comparable | Concentrations giving significantly decreased HTM hydrogel contraction compared to the TGFβ2 group [3]: ≥ 0.01 µM | Effect on TGFβ2-induced HTM hydrogel contraction vs. TGFβ2 group [3, 12]: failed to rescue | Relative hydrogel size vs. controls [3, 14]: ~ 87% | Intraocular pressure lowering [5]: did not perform as well; also recorded: unable to significantly lower intraocular pressure | Effect on TGFβ2-induced F-actin stress fibers vs. TGFβ2 group [6, 13]: significantly different from TGFβ2 | Relative F-actin signal fold-change vs. controls [6, 15]: ~ 1.3 fold-change

Ki [8]: 1.7 ± 0.7 nM | Ki [1]: 4.5 ± 2 nM | EC50 ([3]; Homo sapiens, HTM): 123 nM | Ki [4]: ~3.1 nM | IC50 ([7]; Homo sapiens): ~193 nM
Molecule: NC[C@@H](C(=O)Nc1ccc2cnccc2c1)c1ccc(O)cc1 [Compound D]
Ionization at physiological pH [9]: partially ionized at physiological pH | Concentrations giving significantly decreased HTM hydrogel contraction compared to the TGFβ2 group [3]: ≥ 0.1 µM | Effect on TGFβ2-induced HTM hydrogel contraction vs. TGFβ2 group [3, 12]: significantly decreased | Relative hydrogel size vs. controls [3, 14]: ~ 96% | Intraocular pressure lowering [5]: did not perform as well as netarsudil | Effect on TGFβ2-induced F-actin stress fibers vs. TGFβ2 group [6, 13]: significantly decreased TGFβ2-induced F-actin stress fibers across all three HTM cell strains | Relative F-actin signal fold-change vs. controls [6, 15]: ~ 0.8 fold-change

Molecule: C[C@@H](N)[C@H]1CC[C@H](C(=O)Nc2ccncc2)CC1 [Compound Y27632, Y27632]
Ki [10]: ~31.5 nM | IC50 [11]: ~1740 nM

Molecule: Cc1ccc(C(=O)OCc2ccc([C@@H](CN)C(=O)Nc3ccc4cnccc4c3)cc2)c(C)c1 [Netarsudil]
Effect on TGFβ2-induced HTM hydrogel contraction, overall across HTM07 and HTM36 [3]: significantly decreased | EC50 [3]: 35.9 nM | HTM hydrogel contraction reversal compared with 10 µM Y27632 ([3]; compound at 0.1 µM): equivalent | HTM hydrogel contraction reversal compared with 10 µM Y27632 ([3]; compound at 1.0 µM): significantly more potent | Concentrations giving significantly decreased HTM hydrogel contraction compared to the TGFβ2 group [3]: ≥ 0.01 µM | Difference in efficacy, netarsudil 1.0 µM vs. 35.9 nM ([3]; HTM hydrogel contraction, across three cell strains): ~ 1.2 fold | Effect on TGFβ2-induced HTM hydrogel contraction vs. TGFβ2 group [3, 12]: significantly decreased | Ki [4]: ~2.7 nM | Effect on TGFβ2-induced F-actin stress fibers vs. TGFβ2 group [6, 13]: significantly decreased | Effect on F-actin signal ([6]; max level netarsudil, 1.0 µM): nearly abolishing the F-actin signal | IC50 [7]: 17 ± 2 nM | IC50 ([7]; listed as netarsudil): ~17 nM

B1: TGFβ2: transforming growth factor beta 2, used to induce a glaucoma-like cell phenotype (protein, UniProt P61812 303-414, looked up)
Transforming growth factor …: ALDAAYCFRNVQDNCCLRPLYIDFKRDLGWKWIHEPKGYNANFCAGACPYLWSSDTQHSRVLSLYNTINPEASASPCCVSQDLEPLTILYYIGKTPKIEQLSNMIVKSCKCS
Increase of HTM hydrogel contraction over controls ([3]; HTM05, HTM07, HTM36): ~ 25% | Increase of HTM hydrogel contraction over controls ([3]; HTM07 and HTM36, higher passage cells): ~ 15% | Relative hydrogel size vs. controls [3, 16]: ~ 75% | Relative F-actin signal fold-change vs. controls [6, 16]: ~ 1.9 fold-change
